Patent US4093626A, “β-Lactam antibiotics” (Beecham Group Limited, priority 1976, dated 1978)

Key:
[1] = target: β-lactamase enzyme produced by Staphylococcus aureus Russell (Staphylococcus aureus, UniProt P00807); assay: Inhibition of the β-lactamase from Staphylococcus aureus Russell (I50); assay type: biochemical; conditions: β-lactamase from Staph. aureus Russell
Protocol: Inhibition of the β-lactamase from Staphylococcus aureus Russell
I50 values were determined using the process described in Belgium Pat. No. 827,926.

[2] = system: Staph. aureus Russell; assay: Antibacterial activity (M.I.C.) against Staphylococcus aureus Russell; assay type: cell-based; conditions: compound alone
From the text: (§1) Antibacterial activity and antibacterial synergy with ampicillin against Staphylococcus aureus Russell

[3] = system: Staph. aureus Russell; assay: Antibacterial synergy with ampicillin against Staphylococcus aureus Russell (M.I.C. of ampicillin in presence of compound); assay type: cell-based; conditions: inhibitor conc. 20 μg/ml
From the text: as §1

[4] = Acute toxicity in mice; assay type: in vivo
Protocol: The compound (mixture of 2 isomers) from Example 6.2 was tested for acute toxicity in mice as described below.
Mice: CDI, female, 18 - 22 gm. 5 mice per group
The compound was injected in aqueous dimethylformamide (≤15% DMF) at 0.4 ml/20 g for the 2000 mg./Kg. dosage and at 0.2 ml/20 g. for the other dosages.

Chain of β-lactamase enzyme produced by Staphylococcus aureus Russell (P00807 25-281): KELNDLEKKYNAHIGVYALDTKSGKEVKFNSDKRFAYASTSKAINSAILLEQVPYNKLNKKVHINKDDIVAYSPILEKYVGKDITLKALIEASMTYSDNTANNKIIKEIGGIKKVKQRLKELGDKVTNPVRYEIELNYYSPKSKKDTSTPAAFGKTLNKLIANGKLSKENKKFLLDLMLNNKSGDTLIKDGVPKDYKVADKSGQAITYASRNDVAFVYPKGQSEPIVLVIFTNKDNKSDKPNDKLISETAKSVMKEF

## O=C1C[C@@H]2O[C@@H](CBr)CN12 (racemic) [Example 2.2, (3RS, 5SR)-3-Bromomethyl-4-oxa-1-azabicyclo[3.2.0]heptan-7-one]
[1]
  IC50: 14.6 µM

## O=C1C[C@@H]2O[C@@H](CSc3ccccc3)CN12 (racemic) [Example 7, (3RS, 5SR)-3-Phenylthiomethyl-4-oxa-1-azabicyclo[3.2.0]heptan-7-one]
[1]
  IC50: 10.2 µM

## O=C(OC[C@H]1CN2C(=O)C[C@@H]2O1)c1ccc([N+](=O)[O-])cc1 (racemic) [Example 14, (3RS, 5SR)-3-p-Nitrobenzoyloxymethyl-4-oxa-1-azabicyclo[3.2.0]heptan-7-one]
[1]
  IC50: 15.1 µM

## O=C1C[C@@H]2O[C@@H](COc3ccc([N+](=O)[O-])cc3)CN12 (racemic) [Example 15, (3RS, 5SR)-3-p-Nitrophenoxymethyl-4-oxa-1-azabicyclo[3.2.0]heptan-7-one]
[1]
  IC50: 16.7 µM

## O=C1C[C@@H]2O[C@@H](CS(=O)(=O)c3ccc([N+](=O)[O-])cc3)CN12 (relative stereo) [Example 0-20]
[1]
  IC50: 5.44 µM

## O=C(Nc1ccccc1)OC[C@H]1CN2C(=O)C[C@@H]2O1 (relative stereo) [Example 22, (3RS, 5SR)-3-(N-Phenylcarbamoyloxymethyl)-4-oxa-1-azabicyclo[3.2.0]heptan-7-one]
[1]
  IC50: 9.15 µM

## O=C1C[C@@H]2O[C@@H](C[S+]([O-])c3ccc([N+](=O)[O-])cc3)CN12 (single isomer, unassigned) [Example 20 (isomer I), (3RS, 5SR)-3-p-Nitrophenylsulphinylmethyl-4-oxa-1-azabicyclo[3.2.0] heptan-7-one]
[1]
  IC50: 2.7 µM

## (3RS, 5RS)- and (3RS, 5SR)-3-(2-Bromoethyl)-4-oxa-1-azabicyclo[3.2.0]heptan-7-one [Example 6.2]
[2]
  M.I.C.: 500 µg/mL
[3]
  M.I.C. Ampicillin: 0.4 µg/mL
[4]; 250 mg./Kg. subcutaneous, Day 2
  Number of mice alive: 5/5
[4]; 250 mg./Kg. subcutaneous, Day 3
  Number of mice alive: 5/5
[4]; 250 mg./Kg. subcutaneous, Days 0 and 1
  Number of mice alive: 5/5
[4]; 250 mg./Kg. subcutaneous, Days 4 to 7
  Number of mice alive: 5/5
[4]; 500 mg./Kg. subcutaneous, Day 2
  Number of mice alive: 5/5
[4]; 500 mg./Kg. subcutaneous, Day 3
  Number of mice alive: 5/5
[4]; 500 mg./Kg. subcutaneous, Days 0 and 1
  Number of mice alive: 5/5
[4]; 500 mg./Kg. subcutaneous, Days 4 to 7
  Number of mice alive: 5/5
[4]; 1000 mg./Kg. subcutaneous, Day 2
  Number of mice alive: 5/5
[4]; 1000 mg./Kg. subcutaneous, Day 3
  Number of mice alive: 5/5
[4]; 1000 mg./Kg. subcutaneous, Days 0 and 1
  Number of mice alive: 5/5
[4]; 1000 mg./Kg. subcutaneous, Days 4 to 7
  Number of mice alive: 5/5
[4]; 2000 mg./Kg. subcutaneous, Day 2
  Number of mice alive: 3/5
[4]; 2000 mg./Kg. subcutaneous, Day 3
  Number of mice alive: 2/5
[4]; 2000 mg./Kg. subcutaneous, Days 0 and 1
  Number of mice alive: 5/5
[4]; 2000 mg./Kg. subcutaneous, Days 4 to 7
  Number of mice alive: 2/5
[4]; 2000 mg./Kg. subcutaneous, end of observation period (7 days)
  Survival and weight gain of remaining mice: the other two remained alive and had gained weight
[4]; 2000 mg./Kg. subcutaneous, within 3 days
  Deaths: three out of the five mice were dead
[4]; dosages up to 100 mg./Kg. subcutaneous, 7 days
  Survival and weight gain over the observation period: all mice remained alive and gained in weight
